Reference: patent US20210207064A1, “COMPOUND FOR RESTORING CONTAMINATED SOIL OR CONTAMINATED WATER” (FNG RESEARCH CO., LTD., priority 2018, published 2021)

How the values were obtained:
[1] = Formaldehyde (formalin) removing ability test (GC); conditions: 2.0% formaldehyde solution, 3 molar equivalents of compound, room temperature; for Formaldehyde GC Area, 30 min: after 30 min; for Formaldehyde GC Area, 180 min: after 180 min; for Formaldehyde GC Area, Initial: initial state
[2] = Heavy metal removal ability test in contaminated soil (ICP-MS), nickel; conditions: for Nickel (Ni) Adsorption amount: contaminated soil; for Nickel (Ni) Adsorption rate: relative to EDTA control
Procedure, shortened: (§1)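 Sieved soil spiked with aqueous heavy metal, mixed 5 min with 3 ml of test solution, then extracted with 50 ml distilled water (20 min stirring, 1 h settling). Supernatant metal measured by ICP-MS; adsorption rate (%) expressed relative to control.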

[3] = Heavy metal removal ability test in contaminated soil (ICP-MS), cadmium; conditions: for Cadmium (Cd) Adsorption amount: contaminated soil; for Cadmium (Cd) Adsorption rate: relative to EDTA control
Procedure, shortened: as §1

[4] = Heavy metal removal ability test in contaminated soil (ICP-MS), arsenic; conditions: for Arsenic (As) Adsorption amount: contaminated soil; for Arsenic (As) Adsorption rate: relative to EDTA control
Procedure, shortened: as §1

[5] = Heavy metal removal ability test in contaminated soil around a factory (WAK-Me test kit); conditions: 1.0 wt % aqueous solution, colour comparison test kit
Experimental: The contaminated soil around the factory in the industrial complex was collected, pulverized, and meshed to prepare fine particles of soil samples.
Each 3 ml of aqueous solutions for restoring soil was added to soil samples and mixed for 5 minutes.

[6] = system: human skin; test: Skin irritation test of active ingredient (patch method, CTFA guidelines); type: in vivo; conditions: 24 h patch; for Test result (number of subject) (+) / Test result (number of subject) (++) / Test result (number of subject) (±) / Test result (number of subject) (−): 20 people; for Test result (number of subject) (+): (+) apparent reddening; for Test result (number of subject) (++): (++) more reddened and swollen; for Test result (number of subject) (±): (±) slightly reddish; for Test result (number of subject) (−): (−) no erythema

| SMILES | Formaldehyde GC Area, 30 min [1] [mAU*min] | Formaldehyde GC Area, 180 min [1] [mAU*min] | Formaldehyde GC Area, Initial [1] [mAU*min] | Nickel (Ni) Adsorption amount ([2]; content 0.5% aqueous solution) [ppm] | Nickel (Ni) Adsorption rate ([2]; content 0.5%) [%] | Nickel (Ni) Adsorption amount ([2]; content 1.0% aqueous solution) [ppm] | Nickel (Ni) Adsorption rate ([2]; content 1.0%) [%] | Nickel (Ni) Adsorption amount ([2]; content 2.0% aqueous solution) [ppm] | Nickel (Ni) Adsorption rate ([2]; content 2.0%) [%] | Cadmium (Cd) Adsorption amount ([3]; content 0.5% aqueous solution) [ppm] | Cadmium (Cd) Adsorption rate ([3]; content 0.5%) [%] | Cadmium (Cd) Adsorption amount ([3]; content 1.0% aqueous solution) [ppm] | Cadmium (Cd) Adsorption rate ([3]; content 1.0%) [%] | Cadmium (Cd) Adsorption amount ([3]; content 2.0% aqueous solution) [ppm] | Cadmium (Cd) Adsorption rate ([3]; content 2.0%) [%] | Arsenic (As) Adsorption amount ([4]; content 0.5% aqueous solution) [ppm] | Arsenic (As) Adsorption rate ([4]; content 0.5%) [%] | Arsenic (As) Adsorption amount ([4]; content 1.0% aqueous solution) [ppm] | Arsenic (As) Adsorption rate ([4]; content 1.0%) [%] | Arsenic (As) Adsorption amount ([4]; content 2.0% aqueous solution) [ppm] | further results |
| --- | --- | --- | --- | --- | --- | --- | --- | --- | --- | --- | --- | --- | --- | --- | --- | --- | --- | --- | --- | --- | --- |
| O=C(O)c1ccc(N2CCCN(c3ccc(C(=O)O)o3)CCN(c3ccc(C(=O)O)o3)CCCN(c3ccc(C(=O)O)o3)CC2)o1 [Embodiment 12, 5,5′,5″,5′″-(1,4,8,11-tetraazacyclotetradecane-1,4,8,11-tetrayl)tetrakis(furan-2-carboxylic Acid)] | 0.170 | 0 | 0.305 | 77 | 157 | 84 | 171 | 89 | 182 | 61 | 149 | 67 | 163 | 72 | 176 | 41 | 164 | 43 | 172 | 46 | Arsenic (As) Adsorption rate ([4]; content 2.0%): 184%; Total amount (Cu, Zn, Mn, Ni, Cd) [5]: ≤5 ppm; Test result (number of subject) (+) ([6]; content 0.1 wt %): 0; Test result (number of subject) (++) ([6]; content 0.1 wt %): 0; Test result (number of subject) (±) ([6]; content 0.1 wt %): 0; Test result (number of subject) (−) ([6]; content 0.1 wt %): 20; Degree of irritation ([6]; content 0.1 wt %): 0; Grade for skin irritation ([6]; content 0.1 wt %): I (Degree of irritation 0-0.1: Grade I (unstimulated)); Test result (number of subject) (+) ([6]; content 0.5 wt %): 0; Test result (number of subject) (++) ([6]; content 0.5 wt %): 0; Test result (number of subject) (±) ([6]; content 0.5 wt %): 0; Test result (number of subject) (−) ([6]; content 0.5 wt %): 20; Degree of irritation ([6]; content 0.5 wt %): 0; Grade for skin irritation ([6]; content 0.5 wt %): I (Degree of irritation 0-0.1: Grade I (unstimulated)); Test result (number of subject) (+) ([6]; content 1.0 wt %): 0; Test result (number of subject) (++) ([6]; content 1.0 wt %): 0; Test result (number of subject) (±) ([6]; content 1.0 wt %): 1; Test result (number of subject) (−) ([6]; content 1.0 wt %): 19; Degree of irritation ([6]; content 1.0 wt %): 0.05; Grade for skin irritation ([6]; content 1.0 wt %): I (Degree of irritation 0-0.1: Grade I (unstimulated)) |
| NCCNCCNCCN [Trientine, Triethylenetetramine, reference compound] | 0.168 | 0 | 0.305 | 102 | 208 | 115 | 235 | 131 | 267 | 68 | 166 | 75 | 183 | 79 | 193 | 49 | 196 | 52 | 208 | 59 | Arsenic (As) Adsorption rate ([4]; content 2.0%): 236%; Total amount (Cu, Zn, Mn, Ni, Cd) [5]: ≤5 (red) ppm; Test result (number of subject) (+) ([6]; content 0.1 wt %): 0; Test result (number of subject) (++) ([6]; content 0.1 wt %): 0; Test result (number of subject) (±) ([6]; content 0.1 wt %): 0; Test result (number of subject) (−) ([6]; content 0.1 wt %): 20; Degree of irritation ([6]; content 0.1 wt %): 0; Grade for skin irritation ([6]; content 0.1 wt %): I (Degree of irritation 0-0.1: Grade I (unstimulated)); Test result (number of subject) (+) ([6]; content 0.5 wt %): 0; Test result (number of subject) (++) ([6]; content 0.5 wt %): 0; Test result (number of subject) (±) ([6]; content 0.5 wt %): 1; Test result (number of subject) (−) ([6]; content 0.5 wt %): 19; Degree of irritation ([6]; content 0.5 wt %): 0.05; Grade for skin irritation ([6]; content 0.5 wt %): I (Degree of irritation 0-0.1: Grade I (unstimulated)); Test result (number of subject) (+) ([6]; content 1.0 wt %): 0; Test result (number of subject) (++) ([6]; content 1.0 wt %): 0; Test result (number of subject) (±) ([6]; content 1.0 wt %): 3; Test result (number of subject) (−) ([6]; content 1.0 wt %): 17; Degree of irritation ([6]; content 1.0 wt %): 0.15; Grade for skin irritation ([6]; content 1.0 wt %): II (Degree of irritation 0.11-0.3: Grade II (weakly stimulated)) |
